Legend:
Format in all cases: cell-based, Pseudomonas aeruginosa
P. aeruginosa H131300444 [1] = experiment: Minimum inhibitory concentration, broth microdilution; details: clinical isolate P. aeruginosa H131300444
Method: (§1) Briefly, fresh cultures of each strain were diluted in Cation-Adjusted Mueller-Hinton Broth (CAMHB; Mg^2+ at 12.2 mg/L and Ca^2+ at 23.0 mg/L [Oxoid, Hampshire, England]) giving an approximately inoculum of 10^^6 colony-forming units (CFU/ml) as the inocula. Drug concentrations of 0, 0.125, 0.25, 0.5, 1, 2, and 4 mg/L were derived from diluting the stock drug solution (5.12 mg/mL) with CAMHB.

P. aeruginosa H133880624 [2] = experiment: as above; details: clinical isolate P. aeruginosa H133880624
Method: as §1

P. aeruginosa H131300444 [3] = experiment: In vitro static time-kill experiment; details: colistin 2 mg/L and/or ciprofloxacin 8 mg/L; 0-24 hrs; FIG. 13A
Method: (§2) All samples were dissolved in CAMHB and all experiments were performed with an initial inoculum of ~10^6 CFU/mL in 20 mL of CAMHB in 50 mL pyrogen-free and sterile polypropylene tubes. […] Serial samples (50 μL) were obtained at 0, 1, 3, 6 and 24 hrs for viable cell counting and determination of drug concentrations. All samples were centrifuged at 12000×g for 10 min and cell pellets were resuspended in 0.9% saline and diluted accordingly for viable counting on nutrient agar plates. The bacteria were incubated at 37° C. for 24 hrs and the limit of detection was 20 CFU/mL (equivalent to one colony per plate). The colonies were counted with a ProtoCOL colony counter (Synbiosis, Cambridge, United Kingdom).

P. aeruginosa H133880624 [4] = experiment: In vitro static time-kill experiment; details: colistin 2 mg/L and/or ciprofloxacin 8 mg/L; 0-24 hrs; FIG. 13B
Method: as §2

Q: What does the source list for Colistin sulfate?
A: MIC (P. aeruginosa H131300444 [1]): 128 µg/mL; MIC (P. aeruginosa H133880624 [2]): 128 µg/mL; time-kill profile (P. aeruginosa H131300444 [3]): no antibacterial effect; time-kill profile (P. aeruginosa H133880624 [4]): no antibacterial effect

Reference: patent US12728136B2, “Liposomal nano formulation of combinational antibiotics and the uses thereof” (Purdue Research Foundation, priority 2018, dated 2026)
